This note sets out measurements from US20250270199A1, “THIAZOLE DERIVATIVES AND METHODS OF USING THE SAME” (Arkansas State University - Jonesboro, priority 2022, published 2025).

The subject of assay [1] is S. aureus LAC MRSA (Sa LAC). The assay is described as follows: MIC, broth microdilution, Sa LAC. The class given is cell-based. The settings on record: Staphylococcus aureus, Table 1, HT series, read-out: Minimum inhibitory concentration (MIC) Sa LAC. The procedure: (§1) The broth microdilution method was utilized to determine MIC values of novel thiazole derivatives against different clinically important Gram-positive bacteria according to the guidelines outlined by the Clinical and Laboratory Standards Institute (CLSI) as reported in our recent papers.^1-5 The starting concentration of compounds for MIC determination was 64 μg/mL serially diluted down the wells and the MIC values were recorded in duplicates in three independent experiments on different days.
In general terms: Broth dilution looks for growth in wells or tubes with falling amounts of substance.

For assay [2], the system named is S. aureus ATCC BAA-2312 (Sa 12). The assay is described as follows: MIC, broth microdilution, Sa 12. The class given is cell-based. The settings on record: Staphylococcus aureus, ATCCBAA2312; Table 1, HT series; read-out: Minimum inhibitory concentration (MIC) Sa 12. The procedure: as §1
For assay [3], the system named is S. aureus ATCC 25923 (Sa 23). The assay is described as follows: MIC, broth microdilution, Sa 23. It counts as cell-based. The settings on record: replicates from different days separated by comma; for MIC: Staphylococcus aureus, ATCC25923, Table 1, HT series, read-out: Minimum inhibitory concentration (MIC) Sa 23; for Minimum inhibitory concentration (MIC) Sa 23: Table 1, HT series. The procedure: as §1

Assay [4] concerns Sa UAMS-1 MRSA ATCC 49230 (Sa UAMS). The assay is described as follows: MIC, broth microdilution, Sa UAMS. It counts as cell-based, S. aureus. The settings on record: Staphylococcus aureus; Table 1, HT series; read-out: Minimum inhibitory concentration (MIC) Sa UAMS. The protocol: as §1
The test system of assay [5] is S. aureus ATCC 700699 (Sa 99). The assay is described as follows: MIC, broth microdilution, Sa 99. The class given is cell-based. The settings on record: replicates from different days separated by comma; for MIC: Staphylococcus aureus, ATCC700699, Table 1, HT series, read-out: Minimum inhibitory concentration (MIC) Sa 99; for Minimum inhibitory concentration (MIC) Sa 99: Table 1, HT series. The protocol: as §1

Assay [6] relates to E. faecalis ATCC 29212 (Efs 12). The assay is described as follows: MIC, broth microdilution, Efs 12. The settings on record: replicates from different days separated by comma; for MIC: Enterococcus faecalis, ATCC29212, Table 1, HT series, read-out: Minimum inhibitory concentration (MIC) Efs 12; for Minimum inhibitory concentration (MIC) Efs 12: Table 1, HT series. The class given is cell-based. The procedure: as §1

The subject of assay [7] is S. aureus ATCC 33592 (Sa 92). The assay is described as follows: MIC, broth microdilution, Sa 92. It counts as cell-based. The settings on record: Staphylococcus aureus, ATCC33592; Table 1, HT series; read-out: Minimum inhibitory concentration (MIC) Sa 92. The protocol: as §1
For assay [8], the system named is S. aureus subsp. aureus Rosenbach ATCC 25904 (SA Newman). The assay is described as follows: MIC, broth microdilution, SA Newman. The class given is cell-based. The settings on record: Staphylococcus aureus; Table 1, HT series; read-out: Minimum inhibitory concentration (MIC) Sa Newman. The protocol: as §1
Assay [9] relates to S. aureus ATCC 33591 (Sa 91). The assay is described as follows: MIC, broth microdilution, Sa 91. It counts as cell-based. The settings on record: Staphylococcus aureus, ATCC33591; Table 1, HT series; read-out: Minimum inhibitory concentration (MIC) Sa 91. The procedure: as §1

Each structure is given as a SMILES string. ≈ marks a conversion by molar mass, not a printed value. Where “and” joins values, the source holds several entries; their conditions need not be identical. Equal entries are not always repeated.

`Oc1ccc(-c2nc(-c3ccccc3)cs2)cc1O` [Compound 2, 4-(4-phenylthiazol-2-yl)benzene-1,2-diol]: the MIC was 32 µg/mL (≈ 119 µM) in [1]; 32 µg/mL (≈ 119 µM) in assay [2]; 8 µg/mL (≈ 29.7 µM) in assay [3]; 32 µg/mL (≈ 119 µM) in assay [4]; 32 µg/mL (≈ 119 µM) in assay [5]; over 32 µg/mL in [6]. In addition, the results for the MIC in assay [7], in assay [8] and in [9] were 16 µg/mL (≈ 59.4 µM), 32 µg/mL (≈ 119 µM) and 16 µg/mL (≈ 59.4 µM), respectively. Besides, the “Minimum inhibitory concentration (MIC) Sa 23” value in [3] is 16 µg/mL (≈ 59.4 µM). In addition, the “Minimum inhibitory concentration (MIC) Sa 99” value in assay [5] worked out at 16 µg/mL (≈ 59.4 µM). Moreover, the “Minimum inhibitory concentration (MIC) Efs 12” value in assay [6] is >32, >32, >32 μg/mL.

As for `Oc1ccc(-c2nc(-c3cccc(Cl)c3)cs2)cc1O` [Compound 3, 4-(4-(3-chlorophenyl)thiazol-2-yl)benzene-1,2-diol], the MIC in assay [1] was found to be 8 µg/mL (≈ 26.3 µM); in [2], 8 µg/mL (≈ 26.3 µM); in [3] it was 2 µg/mL (≈ 6.58 µM); in assay [4] it was 8 µg/mL (≈ 26.3 µM); in assay [5], 4 µg/mL (≈ 13.2 µM); in [6] it was 16 µg/mL (≈ 52.7 µM). Moreover, the MIC amounted to 8 µg/mL (≈ 26.3 µM) in assay [7], 4 µg/mL (≈ 13.2 µM) in assay [8] and 4 µg/mL (≈ 13.2 µM) in assay [9]. The “Minimum inhibitory concentration (MIC) Sa 23” value in assay [3] is reported as 2, 2, 2 μg/mL. Also, in assay [5], the “Minimum inhibitory concentration (MIC) Sa 99” value is given as 4, 4, 4 μg/mL. The “Minimum inhibitory concentration (MIC) Efs 12” value in [6] was 8 µg/mL and 16 µg/mL.

For `Oc1ccc(-c2nc(-c3ccc(F)cc3)cs2)cc1O` [Compound 4, 4-(4-(4-fluorophenyl)thiazol-2-yl)benzene-1,2-diol], the MIC turned out to be 16 µg/mL (≈ 55.7 µM) in [1]; 16 µg/mL (≈ 55.7 µM) in assay [2]; 4 µg/mL (≈ 13.9 µM) in assay [3]; 16 µg/mL (≈ 55.7 µM) in assay [4]; 32 µg/mL (≈ 111 µM) in [6]; 16 µg/mL (≈ 55.7 µM) in assay [7]. Further, the MIC in [8] and in assay [9] was 8 µg/mL (≈ 27.8 µM) throughout. For the same compound, the “Minimum inhibitory concentration (MIC) Sa 23” value in [3] came to 8 µg/mL (≈ 27.8 µM). The “Minimum inhibitory concentration (MIC) Sa 99” value in assay [5] was 16 μg/mL (2×) and 4 μg/mL. Also, in assay [6], the “Minimum inhibitory concentration (MIC) Efs 12” value is on record as 32, 32, 32 μg/mL.

On to `Oc1ccc(-c2nc(-c3ccc(Cl)cc3Cl)cs2)cc1O` [Compound 6, 4-(4-(2,4-dichlorophenyl)thiazol-2-yl)benzene-1,2-diol], for which the MIC in [1] came out at 8 µg/mL (≈ 23.7 µM); in assay [2], 8 µg/mL (≈ 23.7 µM); in assay [3] it was 2 µg/mL (≈ 5.91 µM); in assay [4] it was 8 µg/mL (≈ 23.7 µM); in assay [5], 2 µg/mL (≈ 5.91 µM); in assay [7], 8 µg/mL (≈ 23.7 µM). The MIC in assay [8] and in [9] was 4 µg/mL (≈ 11.8 µM) in each case. Further, the “Minimum inhibitory concentration (MIC) Sa 23” value in [3] is 2, 2, 2 μg/mL. Further, the “Minimum inhibitory concentration (MIC) Sa 99” value in assay [5] is reported as 2, 2, 2 μg/mL. Moreover, the “Minimum inhibitory concentration (MIC) Efs 12” value in assay [6] was 16 µg/mL and 2 µg/mL and 8 µg/mL.

In the case of `Oc1ccc(-c2csc(-c3ccc(O)c(O)c3)n2)cc1` [Compound 8, 4-(4-(4-hydroxyphenyl)thiazol-2-yl)benzene-1,2-diol], the MIC in [1] is 16 µg/mL (≈ 56.1 µM); in [2], 16 µg/mL (≈ 56.1 µM); in [3], 16 µg/mL (≈ 56.1 µM); in [4], 32 µg/mL (≈ 112 µM); in assay [5], 16 µg/mL (≈ 56.1 µM); in assay [6] it was over 32 µg/mL. Also, the MIC is 32 µg/mL (≈ 112 µM) in assay [7], 16 µg/mL (≈ 56.1 µM) in assay [8] and 32 µg/mL (≈ 112 µM) in [9]. Also, the “Minimum inhibitory concentration (MIC) Sa 23” value in [3] was 16, 16, 16 μg/mL. The “Minimum inhibitory concentration (MIC) Sa 99” value in assay [5] is 8 µg/mL (≈ 28 µM). Moreover, the “Minimum inhibitory concentration (MIC) Efs 12” value in assay [6] is on record as >32, >32, >32 μg/mL.
